Measurements as given in patent publication US5045549A, “Substituted 4-pyridone 3-carboxylic acid derivatives, method for their production and their pharmaceutical compositions” (priority 1986, dated 1991).
Where two headings read alike, the source gives them in different places.

Key:
Test in all cases: MIC agar dilution assay (Table III)
Format in all cases: cell-based
CITRO DIV = settings: 18 CITRO DIV K 82 24; 18 Hrs, 35 Celsius; read-out: MINIMAL INHIBITORY CONC.
Protocol: (§1) The results are summarized in Table III. |TEST: 406 METHOD: […] |MEDIUM: […] |INCUBATION: 18 Hrs. 35 Celsius | Aerobic: T

ESCH COLI = settings: 18 h, read-out: MINIMAL INHIBITORY CONC.
Protocol: as §1

PROV STUA = settings: 17 PROV STUA CMC 83 3; 18 Hrs, 35 Celsius; read-out: MINIMAL INHIBITORY CONC.
Protocol: as §1

PSEU AERUG = settings: 18 h, read-out: MINIMAL INHIBITORY CONC.
Protocol: as §1

STREP FAEC = settings: 18 h, read-out: MINIMAL INHIBITORY CONC.
Protocol: as §1

ENTERO CLO = settings: 18 h, read-out: MINIMAL INHIBITORY CONC.
Protocol: (§2) TEST: 406 METHOD: AGAR DIL
(§3) MEDIUM: MUEL-HIN INOCULUM: 1.OE+04 - 5.OE+04
(§4) INCUBATION: 18 Hrs. 35 Celsius

KLEB PNEUM = settings: 18 h, read-out: MINIMAL INHIBITORY CONC.
Protocol: as §2, §3, §4

MORG MORG = settings: 18 h, read-out: MINIMAL INHIBITORY CONC.
Protocol: as §2, §3, §4

PROT RETT = settings: 16 PROT RETT IO 83 21; 18 Hrs, 35 Celsius; read-out: MINIMAL INHIBITORY CONC.
Protocol: as §2, §3, §4

SERRAT MARC = settings: 18 h, read-out: MINIMAL INHIBITORY CONC.
Protocol: as §2, §3, §4

STAPH AUR = settings: 18 h, read-out: MINIMAL INHIBITORY CONC.
Protocol: as §2, §3, §4

[1] = 1 ESCH COLI MOR 84 20, 35 Celsius
[2] = 2 ESCH COLI VGH 84 19, 35 Celsius
[3] = 3 ESCH COLI CMC 84 50, 35 Celsius
[4] = 28 ESCH COLI ATCC 25922, 35 Celsius
[5] = 19 PSEU AERUG K 84 16, 35 Celsius
[6] = 20 PSEU AERUG VGH 84 3, 35 Celsius
[7] = 21 PSEU AERUG CMC 83 20, 35 Celsius
[8] = 25 STREP FAEC UCI 85 30, 35 Celsius
[9] = 26 STREP FAEC VGH 84 69, 35 Celsius
[10] = 27 STREP FAEC CMC 83 120, 35 Celsius
[11] = 7 ENTERO CLO VGH 84 39, 35 Celsius
[12] = 8 ENTERO CLO K 84 10, 35 Celsius
[13] = 9 ENTERO CLO MOR 84 30, 35 Celsius
[14] = 4 KLEB PNEUM CMC 84 31, 35 Celsius
[15] = 5 KLEB PNEUM MOR 84 24, 35 Celsius
[16] = 6 KLEB PNEUM IO 83 5, 35 Celsius
[17] = 13 MORG MORG VGH 84 12, 35 Celsius
[18] = 14 MORG MORG CMC 84 38, 35 Celsius
[19] = 15 MORG MORG MOR 84 45, 35 Celsius
[20] = 10 SERRAT MARC MOR 84 41, 35 Celsius
[21] = 11 SERRAT MARC CMC 83 74, 35 Celsius
[22] = 12 SERRAT MARC IO 83 63, 35 Celsius
[23] = 22 STAPH AUR VGH 84 47, 35 Celsius
[24] = 23 STAPH AUR K 82 26, 35 Celsius
[25] = 24 STAPH AUR CMC 83 131, 35 Celsius
[26] = 29 STAPH AUR ATCC 29213, 35 Celsius

Measured: MIC

CN1CC2CC1CN2c1cc2c(cc1F)c(=O)c(C(=O)O)cn2-c1ccc(F)cc1F (stereo not shown) [Example 9, 6-Fluoro-1-(2,4-difluorophenyl)-1,4-dihydro7-(5-methyl-2,5-diazabicyclo(2.2.1)hept-2-yl)-4-oxoquinoline-3-carboxylic acid]
0.015 µg/mL: ESCH COLI; [1] | ESCH COLI; [2] | STAPH AUR; [24]
0.5 µg/mL: PSEU AERUG; [7] | STREP FAEC; [8] | STREP FAEC; [9] | STREP FAEC; [10] | SERRAT MARC; [22] | STAPH AUR; [25]
0.25 µg/mL: MORG MORG; [17] | MORG MORG; [18]
0.06 µg/mL: ESCH COLI; [3] | ENTERO CLO; [11] | ENTERO CLO; [13] | KLEB PNEUM; [14] | KLEB PNEUM; [15] | PROT RETT
0.03 µg/mL: CITRO DIV | ESCH COLI; [4] | ENTERO CLO; [12] | STAPH AUR; [23] | STAPH AUR; [26]
4 µg/mL: PROV STUA | PSEU AERUG; [6] | SERRAT MARC; [21]
0.12 µg/mL: KLEB PNEUM; [16] | MORG MORG; [19] | SERRAT MARC; [20]
1 µg/mL: PSEU AERUG; [5]

O=C(O)c1cn(-c2ccc(F)cc2F)c2cc(N3CC4CC3CN4)c(F)cc2c1=O (stereo not shown) [Example 11, 7-(2,5-diazabicyclo(2.2.1)hept-2-yl)-6-fluoro-1-(2,4-difluorophenyl)-1,4-dihydro-4-oxoquinoline3-carboxylic acid]
0.06 µg/mL: KLEB PNEUM; [15] | KLEB PNEUM; [16] | MORG MORG; [17] | SERRAT MARC; [20]
0.5 µg/mL: PSEU AERUG; [5] | STREP FAEC; [8] | STREP FAEC; [9] | STREP FAEC; [10]
1 µg/mL: PSEU AERUG; [6]
0.015 µg/mL: ENTERO CLO; [12]
4 µg/mL: SERRAT MARC; [21]
0.03 µg/mL: ESCH COLI; [3] | ENTERO CLO; [11] | ENTERO CLO; [13] | KLEB PNEUM; [14] | MORG MORG; [19] | PROT RETT
0.25 µg/mL: PSEU AERUG; [7] | SERRAT MARC; [22] | STAPH AUR; [23] | STAPH AUR; [25] | STAPH AUR; [26]
0.008 µg/mL: CITRO DIV | ESCH COLI; [1] | ESCH COLI; [2] | ESCH COLI; [4]
0.12 µg/mL: MORG MORG; [18] | STAPH AUR; [24]
2 µg/mL: PROV STUA
